tested on: antibody (high specificity for atrazine); test: Cross-reactivity of triazines and other herbicides in competitive enzyme immunoassay (inhibition of enzyme tracer binding); parameters: species or system rabbits; settings: Cross-activity at a concentration of 2 ppb; inhibition of the enzymatic detection system
Description: For the preparation of an antibody A, which is preferably directed against the side [drawing 3] of the atrazine molecule, at first the methylthioether group of the triazine ametryn is sulfoxidized with peroxy acid and then the modified ametryn is coupled directly with the beef serum albumin. In the analogous way, for the development of an antibody B, which is preferentially directed against the side: [drawing 4] of the atrazine molecule, one of the ethylamino groups of the triazine simazine is bonded by the carbodiimide process to the protein. Lastly an antibody C which preferably responds to the side: [drawing 5] of the atrazine is produced by coupling the herbicide propazine via one of the isopropylamino groups with the carrier matrix.
The conjugates prepared as above are inoculated for the generation of antibodies A, B and C in laboratory animals (rabbits) which are then extracted from the sera of the immunized animals by known processes or by affinity chromatography by substituents according to formula (I).
The antibodies obtained are adsorbed on the polystyrene surface of the microtiter cavities. To this end, the antibodies are dissolved in carbonate buffer (Na2 CO3 /NaHCO3 : 50 mmol/liter; pH 9.6) and respectively 0.25 ml of the solution obtained is pipetted into the individual cavities of the microtiter plate. In the following incubation takes place overnight at room temperature and washing takes place next day with TBS buffer. The well covered plates are then stored dry at -20° C. For analysis 180 μl of the aqueous sample to be investigated (concentration of the substance investigated is from 1 μg/l to 200 mg/l) are poured into the cavities and respectively 50 μl enzyme tracer, a conjugate of alkaline phosphatase and a triazine, which is selected depending on the type of the antibody, are added in the cavities. If the detection is carried out with antibody A, ametryn is coupled with the enzyme, but if antibody B or antibody C are present, simazine or propazine are used.
The solutions are mixed by brief horizontal shaking of the microtiter plate. After a further incubation period of 1 hour at 20° C., by washing with TBS buffer (50 mmol/l tris-(hydroxymethyl)-aminomethane, 1 mmol/l MgCl2, 50 mmol/l NaCl, pH 7.8 with HCl, 0.05% of polyoxyethylene sorbitan monooleate) all the molecules which are not bonded on the antibody positions are removed. For the quantitative detection of the bonded enzyme tracer, respectively 125 μl phosphatase substrate solution (1 mg p-nitrophenylphosphate per ml carbonate buffer) are poured into the individual cavities. The enzyme reaction takes place at 20° C., but can be accelerated by incubation at higher temperature. The absorption of the solution in the individual cavities is measured by a vertical ray photometer on the wavelength […]. If it is wished to move into the range of higher sensitivities, overnight incubation at 4° C. is recommended. But it must be recalled that without special demands on reagent, device and spatial unit reproducible results in the ppt range are not attainable. The computation of the antigen concentration of the sample is based on the following background. The enzyme tracer bonds at first with the free antibody bonding positions, which are left over after incubation with the sample antigen. Thus in the presence of high concentrations of sample antigen only few enzyme tracers are bonded, but with lower concentration of sample antigens, on the other hand, many enzyme tracers are bonded. The amount of the bonded enzyme tracer is therefore a function of the sample antigen concentration. The absorption of the reacted substrate amount (color reaction from colorless to yellow) is used as the measurement magnitude for the bonding of the enzyme tracer.
Absorption ratio of unknown sample (B=AB AuB) and zero sample (BO=ABO -AuB):
B/BO=(AB -AuB l)/(ABO -AuB) […]

| Compound | inhibition (%) |
| --- | --- |
| CCC(C)n1c(=O)[nH]c(C)c(Br)c1=O (stereo not drawn) [bromazile] | 11.1% |
| O=C(Oc1ccccc1)n1c(C(F)(F)F)nc2cc(Cl)c(Cl)cc21 [fenazaflor] | 4.4% |
| CCNc1nc(Cl)nc(NC(C)C)n1 [atrazine, 2-chloro-4-ethylamino-6-isopropylamino-1,3,5-triazine] | 6.0% |
| CNC(=O)N(C)c1nc2ccccc2s1 [metabenzthiazuron] | 8.3% |
| CCNc1nc(N)nc(SC)n1 [desisopropylametryn] | 16.5% |
| CCNc1nc(NC(C)C)nc(SC)n1 [ametryn] | 21.4% |
| CSc1nc(N)nc(NC(C)C)n1 [desethylametryn] | 16.8% |
| Cc1cccc(C)c1N(Cn1cccn1)C(=O)CCl [metazachlor] | 15.2% |
| CSc1nnc(C(C)(C)C)c(=O)n1N [metribuzine] | 6.7% |

Source: patent US5100776A, “Immunological detection process for herbicides” (Dr. Pfeiffer Bioanalytik KG, priority 1987, dated 1992)
